Measurements as given in patent publication US20230081426A1, “COMPOUNDS AND METHODS FOR KRAS MODULATION AND INDICATIONS THEREFOR” (Plexxikon Inc., priority 2020, published 2023).

Tests used:
[1] = molecular target: T1, G12D-mutant human KRAS (amino acid residues 1-188) (Homo sapiens, UniProt P01116, G12D); assay: KRAS Binding Disruption Assay (AlphaScreen; biotinylated KRpep-2d analogue or RAF1-RBD), G12D; details: KRAS G12D; geometric mean; read-out: KRAS GMean IC50 (uM) MUTATION: G12D
T1 construct: G12D or G12C-mutant human KRAS (amino acid residues 1-188) with FLAG tag; made in house; host or cells: E. coli
How it was run: (§1)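 AlphaScreen readout: signal falls as compound displaces biotinylated KRpep-2d analogue or RAF1-RBD from mutant KRAS. Both partners at 5-20 nM, 1 h binding at 25° C, then 10 μg/mL Anti-Flag acceptor and streptavidin donor beads for 1 h. IC50 by nonlinear regression of % inhibition.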

[2] = molecular target: T2, G12C-mutant human KRAS (amino acid residues 1-188) (Homo sapiens, UniProt P01116, G12C); assay: KRAS Binding Disruption Assay (AlphaScreen; biotinylated KRpep-2d analogue or RAF1-RBD), G12C; details: geometric mean, read-out: KRAS GMean IC50 (uM) MUTATION: G12C
T2 construct: G12D or G12C-mutant human KRAS (amino acid residues 1-188) with FLAG tag; made in house; host or cells: E. coli
How it was run: as §1

T2 sequence (P01116 1-188 isoform P01116-2 G12C): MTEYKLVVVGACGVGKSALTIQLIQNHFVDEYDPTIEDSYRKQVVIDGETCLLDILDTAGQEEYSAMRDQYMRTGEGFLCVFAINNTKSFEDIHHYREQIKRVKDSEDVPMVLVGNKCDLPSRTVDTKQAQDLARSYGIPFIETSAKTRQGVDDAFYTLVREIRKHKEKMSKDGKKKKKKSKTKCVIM
T1 sequence (P01116 1-188 isoform P01116-2 G12D): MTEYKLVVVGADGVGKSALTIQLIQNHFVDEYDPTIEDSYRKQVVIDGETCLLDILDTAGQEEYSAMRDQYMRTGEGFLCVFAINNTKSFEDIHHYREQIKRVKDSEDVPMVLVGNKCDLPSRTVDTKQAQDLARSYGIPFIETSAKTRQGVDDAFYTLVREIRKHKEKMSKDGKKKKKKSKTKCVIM

IC50 [1] [µM]	IC50 [2] [µM]	Compound
0.0001 to 10	0.0001 to 10	CCc1c(F)ccc2[nH]cc(-c3c(F)cc4c(N5C[C@H]6CC[C@@H](C5)N6)nc(OCC56CCCN5CCC6)nc4c3F)c12 [P-0710, 4-((1R,5S)-3,8-diazabicyclo[3.2.1]octan-3-yl)-7-(4-ethyl-5-fluoro-1H-indol-3-yl)-6,8-difluoro-2-((tetrahydro-1H-pyrrolizin-7a(5H)-yl)methoxy)quinazoline]
0.0001 to 10	0.0001 to 10	FC(F)(F)c1cccc2[nH]cc(-c3ccc4c(N5C[C@H]6CC[C@@H](C5)N6)nc(OCC56CCCN5CCC6)nc4c3)c12 [P-0711, 4-((1R,5S)-3,8-diazabicyclo[3.2.1]octan-3-yl)-2-((tetrahydro-1H-pyrrolizin-7a(5H)-yl)methoxy)-7-(4-(trifluoromethyl)-1H-indol-3-yl)quinazoline]
10 to 100	10 to 100	Cc1cccc2[nH]nc(-c3ccc4c(N5C[C@H]6CC[C@@H](C5)N6)nc(OC[C@@H]5CCCN5C)nc4c3F)c12 [P-0712, 4-((1R,5S)-3,8-diazabicyclo[3.2.1]octan-3-yl)-8-fluoro-7-(4-methyl-1H-indazol-3-yl)-2-(((S)-1-methylpyrrolidin-2-yl)methoxy)quinazoline]
0.0001 to 10	10 to 100	Oc1cc(-c2ccc3c(N4C[C@H]5CC[C@@H](C4)N5)nc(OCCN4CCC4)nc3c2F)c2ccccc2c1 [P-0713, 4-(2-(2-(azetidin-1-yl)ethoxy)-4-((1R,5S)-3,8-diazabicyclo[3.2.1]octan-3-yl)-8-fluoroquinazolin-7-yl)naphthalen-2-ol]
0.0001 to 10	10 to 100	Oc1cc(-c2ccc3c(N4C[C@H]5CC[C@@H](C4)N5)nc(OC[C@@H]4CCCN4)nc3c2F)c2ccccc2c1 [P-0714, 4-(4-((1R,5S)-3,8-diazabicyclo[3.2.1]octan-3-yl)-8-fluoro-2-(((S)-pyrrolidin-2-yl)methoxy)quinazolin-7-yl)naphthalen-2-ol]
10 to 100	10 to 100	Cc1ncoc1COc1nc(N2C[C@H]3CC[C@@H](C2)N3)c2ccc(-c3cc(O)cc4ccccc34)c(F)c2n1 [P-0715, 4-(4-((1R,5S)-3,8-diazabicyclo[3.2.1]octan-3-yl)-8-fluoro-2-((4-methyloxazol-5-yl)methoxy)quinazolin-7-yl)naphthalen-2-ol]
0.0001 to 10	10 to 100	Oc1cc(-c2ccc3c(N4C[C@H]5CC[C@@H](C4)N5)nc(OCc4cnco4)nc3c2F)c2ccccc2c1 [P-0716, 4-(4-((1R,5S)-3,8-diazabicyclo[3.2.1]octan-3-yl)-8-fluoro-2-(oxazol-5-ylmethoxy)quinazolin-7-yl)naphthalen-2-ol]
0.0001 to 10	10 to 100	CC(=O)NC(C)(C)COc1nc(N2C[C@H]3CC[C@@H](C2)N3)c2ccc(-c3cc(O)cc4ccccc34)c(F)c2n1 [P-0717, N-(1-((4-((1R,5S)-3,8-diazabicyclo[3.2.1]octan-3-yl)-8-fluoro-7-(3-hydroxynaphthalen-1-yl)quinazolin-2-yl)oxy)-2-methylpropan-2-yl)acetamide]
0.0001 to 10	10 to 100	CC(C)(COc1nc(N2C[C@H]3CC[C@@H](C2)N3)c2ccc(-c3cc(O)cc4ccccc34)c(F)c2n1)NS(C)(=O)=O [P-0718, N-(1-((4-((1R,5S)-3,8-diazabicyclo[3.2.1]octan-3-yl)-8-fluoro-7-(3-hydroxynaphthalen-1-yl)quinazolin-2-yl)oxy)-2-methylpropan-2-yl)methanesulfonamide]
0.0001 to 10	0.0001 to 10	CC(C)(CO)COc1nc(N2C[C@H]3CC[C@@H](C2)N3)c2ccc(-c3cc(O)cc4ccccc34)c(F)c2n1 [P-0719, 4-(4-((1R,5S)-3,8-diazabicyclo[3.2.1]octan-3-yl)-8-fluoro-2-(3-hydroxy-2,2-dimethylpropoxy)quinazolin-7-yl)naphthalen-2-ol]
0.0001 to 10	10 to 100	COC(C)(C)COc1nc(N2C[C@H]3CC[C@@H](C2)N3)c2ccc(-c3cc(O)cc4ccccc34)c(F)c2n1 [P-0720, 4-(4-((1R,5S)-3,8-diazabicyclo[3.2.1]octan-3-yl)-8-fluoro-2-(2-methoxy-2-methylpropoxy)quinazolin-7-yl)naphthalen-2-ol]
0.0001 to 10	10 to 100	Oc1cc(-c2ccc3c(N4C[C@H]5CC[C@@H](C4)N5)nc(OCC4(O)CCCC4)nc3c2F)c2ccccc2c1 [P-0721, 4-(4-((1R,5S)-3,8-diazabicyclo[3.2.1]octan-3-yl)-8-fluoro-2-((1-hydroxycyclopentyl)methoxy)quinazo-lin-7-yl)naphthalen-2-ol]
0.0001 to 10	10 to 100	Oc1cc(-c2ccc3c(N4C[C@H]5CC[C@@H](C4)N5)nc(OCC4(O)CCC4)nc3c2F)c2ccccc2c1 [P-0722, 4-(4-((1R,5S)-3,8-diazabicyclo[3.2.1]octan-3-yl)-8-fluoro-2-((1-hydroxycyclobutyl)methoxy)quinazolin-7-yl)naphthalen-2-ol]
0.0001 to 10	0.0001 to 10	Fc1c(-c2c[nH]c3cccc(C(F)(F)F)c23)ccc2c(N3C[C@H]4CC[C@@H](C3)N4)nc(OCC34CCCN3CCC4)nc12 [P-0723, 4-((1R,5S)-3,8-diazabicyclo[3.2.1]octan-3-yl)-8-fluoro-2-((tetrahydro-1H-pyrrolizin-7a(5H)-yl)methoxy)-7-(4-(trifluoromethyl)-1H-indol-3-yl)quinazoline]
10 to 100	100 to 1000	CN1CCC[C@H]1COc1nc(N2C[C@H]3CC[C@@H](C2)N3)c2cc(F)c(-c3n[nH]c4ccc(F)cc34)c(F)c2n1 [P-0724, 4-((1R,5S)-3,8-diazabicyclo[3.2.1]octan-3-yl)-6,8-difluoro-7-(5-fluoro-1H-indazol-3-yl)-2-(((S)-1-methylpyrrolidin-2-yl)methoxy)quinazoline]
10 to 100	100 to 1000	CN1CCC[C@H]1COc1nc(N2C[C@H]3CC[C@@H](C2)N3)c2cc(F)c(-c3n[nH]c4ccccc34)c(F)c2n1 [P-0725, 4-((1R,5S)-3,8-diazabicyclo[3.2.1]octan-3-yl)-6,8-difluoro-7-(1H-indazol-3-yl)-2-(((S)-1-methylpyrrolidin-2-yl)methoxy)quinazoline]
0.0001 to 10	10 to 100	CN1CCC[C@H]1COc1nc(N2C[C@H]3CC[C@@H](C2)N3)c2cc(F)c(-c3c[nH]c4ccc(F)cc34)c(F)c2n1 [P-0726, 4-((1R,5S)-3,8-diazabicyclo[3.2.1]octan-3-yl)-6,8-difluoro-7-(5-fluoro-1H-indol-3-yl)-2-(((S)-1-methylpyrrolidin-2-yl)methoxy)quinazoline]
100 to 1000	100 to 1000	COc1cccc2ncnc(-c3ccc4c(N5C[C@H]6CC[C@@H](C5)N6)nc(OC[C@@H]5CCCN5C)nc4c3F)c12 [P-0727, 4′-((1R,5S)-3,8-diazabicyclo[3.2.1]octan-3-yl)-8′-fluoro-5-methoxy-2′-(((S)-1-methylpyrrolidin-2-yl)methoxy)-4,7′-biquinazoline]
10 to 100	100 to 1000	CN1CCC[C@H]1COc1nc(N2C[C@H]3CC[C@@H](C2)N3)c2ccc(-c3nccc4cccc(Cl)c34)c(F)c2n1 [P-0728, 4-((1R,5S)-3,8-diazabicyclo[3.2.1]octan-3-yl)-7-(8-chloroisoquinolin-1-yl)-8-fluoro-2-(((S)-1-methylpyrrolidin-2-yl)methoxy)quinazoline]
0.0001 to 10	10 to 100	CN1CCC[C@H]1COc1nc(N2C[C@H]3CC[C@@H](C2)N3)c2ccc(-c3c[nH]c4cccc(C(F)(F)F)c34)cc2n1 [P-0729, 4-((1R,5S)-3,8-diazabicyclo[3.2.1]octan-3-yl)-2-(((S)-1-methylpyrrolidin-2-yl)methoxy)-7-(4-(trifluoromethyl)-1H-indol-3-yl)quinazoline]
0.0001 to 10	0.0001 to 10	Fc1cc2c(N3C[C@H]4CC[C@@H](C3)N4)nc(OCC34CCCN3CCC4)nc2c(F)c1-c1c[nH]c2cccc(C3CC3)c12 [P-0730, 4-((1R,5S)-3,8-diazabicyclo[3.2.1]octan-3-yl)-7-(4-cyclopropyl-1H-indol-3-yl)-6,8-difluoro-2-((tetrahydro-1H-pyrrolizin-7a(5H)-yl)methoxy)quinazoline]
0.0001 to 10	0.0001 to 10	CCc1cccc2[nH]cc(-c3c(F)cc4c(N5C[C@H]6CC[C@@H](C5)N6)nc(OCC56CCCN5CCC6)nc4c3F)c12 [P-0731, 4-((1R,5S)-3,8-diazabicyclo[3.2.1]octan-3-yl)-7-(4-ethyl-1H-indol-3-yl)-6,8-difluoro-2-((tetrahydro-1H-pyrrolizin-7a(5H)-yl)methoxy)quinazoline]
0.0001 to 10	10 to 100	NC(=O)COc1nc(N2C[C@H]3CC[C@@H](C2)N3)c2ccc(-c3cc(O)cc4ccccc34)c(F)c2n1 [P-0732, 2-((4-((1R,5S)-3,8-diazabicyclo[3.2.1]octan-3-yl)-8-fluoro-7-(3-hydroxynaphthalen-1-yl)quinazolin-2-yl)oxy)acetamide]
0.0001 to 10	10 to 100	CNC(=O)COc1nc(N2C[C@H]3CC[C@@H](C2)N3)c2ccc(-c3cc(O)cc4ccccc34)c(F)c2n1 [P-0733, 2-((4-((1R,5S)-3,8-diazabicyclo[3.2.1]octan-3-yl)-8-fluoro-7-(3-hydroxynaphthalen-1-yl)quinazolin-2-yl)oxy)-N-methylacetamide]
0.0001 to 10	10 to 100	Oc1cc(-c2ccc3c(N4C[C@H]5CC[C@@H](C4)N5)nc(OCC4(O)CC4)nc3c2F)c2ccccc2c1 [P-0734, 4-(4-((1R,5S)-3,8-diazabicyclo[3.2.1]octan-3-yl)-8-fluoro-2-((1-hydroxycyclopropyl)methoxy)quinazo-lin-7-yl)naphthalen-2-ol]
